# Measured values from US20210382051A1, “METHODS AND COMPOUND FOR THE IDENTIFICATION AND TREATMENT OF TUBERCULOSIS” (priority 2020, published 2021).
# Experiments:
# [1] = system: HIV strains; assay: Activity against HIV strains; type: cell-based; conditions: all HIV strains
# Excerpt: (§1) Referring to FIGS. 2A and 2B, an anti-pathogenic agent and/or the anti-pathogenic compound may be identified as 90I (or 90i). The anti-pathogenic compound may be derived from the herbal extract identified as H2K1001. […] The essence of combination drug therapy, HAART regiments, may be its effectiveness against all HIV-1 strains that is potent enough to bring the viral load down to an undetectable level. This may be achieved by combining an RT and a PR combination synergy to affect multiple modes of action.
# [2] = biological target: protease (PR) enzyme (Human immunodeficiency virus type 1 group M subtype B, UniProt P04585); assay: Effect on protease (PR) enzyme; type: biochemical, HIV
# Excerpt: as §1
# [3] = biological target: reverse transcriptase (Human immunodeficiency virus type 1 group M subtype B, UniProt P04585); assay: Effect on reverse transcriptase; type: biochemical, HIV
# Excerpt: as §1
# [4] = system: gamma interferon production in monocyte and/or macrophage primary cell; assay: Production of gamma interferon by cells receiving 90I (FIG. 3); type: cell-based; conditions: compared with positive control PMA-lonomycin combination; ten days assay, single time point drug addition
# Excerpt: FIG. 3 illustrates a graph showing production of gamma interferon by cells receiving 90I compared to other drugs, according to an exemplary embodiment of the present general inventive concept.
# Referring to FIG. 3, this assay may underscore 90I's absorptions in a monocyte and/or a macrophage primary cell, such that the anti-pathogenic compound may have stability and longer pharmacokinetic half-life in ten days assay with single time point drug addition.
# Moreover, activated CD8+ cells are reported to produce high levels of gamma interferon, which may be involved in the anti-TB immune responses, contributing to both control of bacterial spread and concomitant lymphoid follicular lyses. […] This finding may have a far-reaching implication and relevant in that H2K1001 and/or 90I has the potential in the restoration of immune competence, a strong immune modulator. 90I may be as strong as a vaccine because it may modulate the immune cell signal switch from Th2 to Th1 (i.e. a subset of T lymphocytes that express CD4 and are known as T-helper cells, they produce cytokines, specifically Th1-type cytokines). T-helper subset population Th1 and Th2 subset have been identified in animals and humans based on cytokines secreted. […]
smiles,measurement,setting,value
"O=C(OCCOCCOC(=O)c1ccccc1)c1ccccc1 [90I, diethylene glycol dibenzoate]",potency against HIV strains,[1],highly potent against all HIV strains
same,effectiveness against protease (PR) enzyme,[2],potently effective
same,effectiveness against reverse transcriptase,[3],potently effective
same,amount of gamma interferon produced,[4],equivalent to that of the positive control
